Assay results reported in ChEMBL document CHEMBL5034039, “Discovery of Novel, Orally Bioavailable Pyrimidine Ether-Based Inhibitors of ELOVL1” (J Med Chem, 2021).

Tests used:
[1] = biological target: T1, Very long chain fatty acid elongase 1 (Homo sapiens, UniProt Q9BW60); test: Inhibition of ELOVL1 in HEK293 cells assessed as reduction of C26:0 lipo phosphatidyl choline synthesis; format: cell-based
T1 sequence (Q9BW60 whole entry): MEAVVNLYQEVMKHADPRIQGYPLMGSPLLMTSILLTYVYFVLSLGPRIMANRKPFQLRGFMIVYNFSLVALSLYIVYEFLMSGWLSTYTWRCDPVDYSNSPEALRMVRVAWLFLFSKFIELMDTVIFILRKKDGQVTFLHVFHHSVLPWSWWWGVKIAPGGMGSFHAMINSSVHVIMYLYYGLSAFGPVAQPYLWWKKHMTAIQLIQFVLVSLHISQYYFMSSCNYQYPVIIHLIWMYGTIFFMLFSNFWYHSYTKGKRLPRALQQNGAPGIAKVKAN

[2] = Lipophilicity, logD of the compound at pH 7.4; format: physicochemical; conditions: buffer
[3] = Intrinsic clearance in rat hepatocytes assessed per million cells; format: ADME, cell-based, Hepatocyte; conditions: read-out: CLH
[4] = Reduction in C26:0/C16:0 LPC level in ABCD1 knock out mouse CNS at 10 mg/kg, po qd and measured after 3 months relative to control; format: functional; set-up: scale not given: the % may be the effect or the level left; conditions: 2190 h
[5] = Reduction in C26:0/C16:0 LPC level in ABCD1 knock out mouse CNS at 10 mg/kg, po qd and measured after 8 months relative to control; format: functional; set-up: scale not given: the % may be the effect or the level left; conditions: 5840 h
[6] = biological target: T1, Very long chain fatty acid elongase 1; test: Inhibition of ELOVL1 (unknown origin)

SMILES	IC50 [1] [µM]	logD [2]	hepatocyte CLint [3] [µL/min/1e6 cells]	IC50 [6] [µM]	Activity [4] [%]	Activity [5] [%]
c1cnn([C@H]2C[C@@H](Oc3cc([C@H]4C[C@@H](n5cccn5)C4)ncn3)C2)c1	0.21	2.6	12	–	–	–
Cc1ccnn1CCOc1cc(N2CCCCC2)ncn1	0.14	2.8	366	–	–	–
Fc1ccc(CCOc2cc(N3CCCC3)ncn2)cc1	0.43	3.9	273	–	–	–
Cc1ccnn1CCCOc1cc(N2CCOC3(COC3)C2)ncn1	0.12	1.6	13	–	–	–
O=C(Nc1ccn(-c2ccnc(F)c2)n1)C1(c2ccccc2F)CC1	–	–	–	–	34	65
Fc1ccc(CCOc2cc(N3CCCCC3)ncn2)cc1	0.08	–	139	0.22	–	–
Cc1ccnn1CCCOc1cc(N2C3COCC2C3)ncn1	0.23	1.3	40	–	–	–
CN(c1cc(OCCc2ccc(F)cc2)ncn1)C1CCOC1 (stereo unspecified)	0.06	3.6	327	–	–	–

Second part, led by results:

IC50 [1] [µM]	logD [2]	hepatocyte CLint [3] [µL/min/1e6 cells]	IC50 [6] [µM]	SMILES	Activity [4] [%]	Activity [5] [%]
0.012	3.3	137	–	Fc1ccc(CCOc2cc(N3CCOCC3)ncn2)cc1	–	–
0.0003	3.1	8.4	–	Fc1ccn([C@H]2C[C@H](c3cc(O[C@H]4C[C@@H](n5cccn5)C4)ncn3)C2)n1	–	–
0.002	3.5	12	–	Clc1ccn([C@H]2C[C@H](c3cc(O[C@H]4C[C@@H](n5cccn5)C4)ncn3)C2)n1	–	–
0.009	2.8	8	–	c1ccc([C@H]2CN(c3cc(O[C@H]4C[C@@H](c5nnco5)C4)ncn3)CCO2)cc1	–	–
0.01	2.6	5.6	–	c1cnn([C@H]2C[C@@H](Oc3cc([C@H]4C[C@H](n5cccn5)C4)ncn3)C2)c1	–	–
0.007	3.2	184	–	Cc1ccnn1CCCOc1cc(N2CCCCC2)ncn1	–	–
